Measured values from US5504213A, “Benzofuranyl-and-thiophenyl-alkanecarboxyclic acid derivatives” (Bayer Aktiengesellschaft, priority 1993, dated 1996).

Assays:
PMN cyclic AMP = assay: Measurement of PMN cyclic AMP concentration (human PMN, FMLP-stimulated); format: cell-based; settings: 4×10^-8 M FMLP, control 100, expressed as percentage of vehicle control, read-out: % elevation of cAMP at 1 μM (control 100)
Experimental: 1. Preparation of human PMN
Blood was taken from healthy subjects by venous puncture and neutrophils were purified by dextran sedimentation and resuspended in the buffered medium.
3. Measurement of PMN cyclic AMP concentration
The compounds according to the invention were incubated with 3.7×10^6 PMN for 5 min at 37° C. before addition of 4×10^-8 M FMLP. After 6 min protein was precipitated by the addition of 1% v/v conc. HCl in 96% v/v ethanol containing 0.1 mM EDTA. After centrifugation the ethanolic extracts were evaporated to dryness under N2 and resuspended in 50 mM Tris/HCl pH 7.4 containing 4 mM EDTA. The cyclic AMP concentration in the extracts was determined using a cyclic AMP binding protein assay supplied by Amersham International plc. Cyclic AMP concentrations were expressed as percentage of vehicle containing control incubations.

[1] = test system: FMLP-induced skin oedama of guinea pigs; assay: Effect of intravenously administered compounds on the FMLP-induced skin oedema of guinea pigs; format: in vivo; settings: guinea pig, 1 mg/kg
Experimental: 5. Effect of intravenously administered compounds on the FMLP-induced skin oedama of guinea pigs.
Guinea-pigs (600-800 g) were anaesthetized with pentobarbitone sodium (40 mg/kg, i.p.) and injected (i.V.) with a 0.5 ml mixture of pentamine sky blue (5% W/V) and ^125 I-HSA ([…]). 10 minutes later 3 intradermal injections of FMLP (10 μg/site), 1 injection of histamine (1 μg/site) and 1 injection of vehicle (100 μl of 0.2% DMSO V/V in Hanks Buffered salt solution) were made on the left hand side of the animal (preinjection sites). 5 minutes later the drug (1 ml/kg) or the vehicle (50% PEG 400 V/V in distilled water, 1 ml/kg) was administered (i.V.). 10 minutes later an identical pattern of intradermal injections was made on the opposite flank of the animal (post-injection sites). These responses were allowed to develop for 15 minutes before the animal was sacrificed and a blood sample taken.
Skin sites and plasma samples were counted for 1 minute on a gamma counter and the degree of oedema calculated as μl plasma/skin site. Statistical analysis was done by a paired t-test on the mean of the 3 pre-injection site values of μl plasma obtained for FMLP/animal. The percentage inhibition of drug or vehicle was calculated as follows [formula]

[2] = test system: FMLP-induced skin oedema of guinea-pigs; assay: Effect of orally administered compounds on the FMLP-induced skin oedema of guinea-pigs in vivo; settings: guinea pig, 25 mg/kg
Experimental: 6. Effect of orally administered compounds on the FMLP-induced skin oedema
of guinea-pigs in vivo-Test's p.o.
Guinea-pits (600-800 g) were fasted overnight and orally treated with vehicle ([…]; […]) 40 minutes later the animals were anasthetized with pentobarbitone sodium (40 mg/kg; i.p.) and 0.6 ml of a mixture of pontamine sky blue (5% w/v) and ^125 I-HSA (1 μci/animal) was injected (i.V.). 90 minutes after oral pretreatment FMLP (50 μg/site) was injected (i.d.) at 4 different sites, histamine (1 μg/site) and vehicle (100 μl, 1% DMSO v/v in Hanks buffered salt solution) were both injected (i.d.) at 2 different sites.
The responses were allowed to develop for 30 minutes before the animal was sacrificed and a blood sample taken.
Skin sites and plasma samples were counted for 1 minute on a gamma counter. The degree of oedema was calculated as μl plasma/skin site.
Statistical analysis was carried out by a Mann-Whitney U-test on the mean of the 4 values of μl Plasma obtained for FMLP/animal.

COC(=O)CCc1c(C(=O)c2ccc(Cl)cc2)oc2cc(O)ccc12 [Example 30]
activity at 1 µM (PMN cyclic AMP): 394% | % inhibition (FMLP-induced skin oedema, i.v.) [1]: 40.0% | % inhibition (FMLP-induced skin oedema, p.o.) [2]: 46%
